{"source": "paper PMC10424183", "about": "“Determination of Ligand-Binding Affinity (Kd) Using Transverse Relaxation Rate (R2) in the Ligand-Observed ^1H NMR Experiment and Applications to Fragment-Based Drug Discovery” (Journal of Medicinal Chemistry, 2023)", "key": {"BCL6 BTB [1]": {"molecular_target": "T1, BCL6 BTB (Homo sapiens, UniProt P41182)", "T1 construct": "made in house", "experiment": "R2KD ligand-observed 1H NMR assay (Kd from transverse relaxation rate R2)", "type": "binding", "method": "Four aqueous stock solutions were prepared in Eppendorf Safe-Lock tubes (Cat no. 0030120094) by manual pipetting: (1) ligand aqueous stock solution was prepared by adding 50 mM ligand DMSO-d6 solution to aqueous buffer; (2) dimethyl sulfoxide (DMSO) aqueous stock solution was prepared by adding the same volume of DMSO-d6 as ligand DMSO-d6 solution to aqueous buffer; (3) protein aqueous stock solution was prepared by adding protein solution to aqueous buffer; and (4) aqueous solution was the buffer used in the assay.\nSamples were prepared on a Bruker SamplePro-Tube liquid handler by mixing different volume of the four aqueous stocks in 96-well microplates (Greiner 650201) and then transferred to 3 mm NMR tubes (Figure 2). 10 samples were prepared: samples 1–8 containing increasing ligand concentration (maintaining constant protein concentration); sample 9 and 10 containing only ligands at two different concentrations (protein absent). These two samples served as control samples to obtain the R2 values of free ligand. The final percentage of DMSO-d6 in all samples were identical to minimize possible impacts of DMSO-d6.\nThe R2 values of four aromatic ^1H-NMR signals (Figure 3B) were experimentally determined (Figure 3C) and (R2,obs – R2F) * LT values were calculated using Excel and used as y-axis values in Prism, while ligand concentrations were plotted as the x-axis values (Figure 3D). All four NMR peaks were used to fit a global Kd with non-linear regression using a customized equation (see Experimental Section), while α values were fitted as an individual parameter for each peak (Figure 3E) as α values differ depending on the individual proton’s environment. While it was possible to fit Kd values using individual NMR peaks and then average the values (Figure 3F), we found using a global fitting algorithm increased robustness of curve fitting and better accommodated outliers in the data. The goodness of fit was judged by 95% confidence interval (CI) (profile likelihood) values and R squared value. The global Kd obtained here is close to the Ki value (54 vs 50 μM) although from our accuracy study, the differences can be larger (see section “Assay Accuracy”).\nNMR data were collected at 298 K on a Bruker AVANCE NEO 600 MHz spectrometer, equipped with 5 mm TCI CryoProbe using Bruker Topspin 4.0. The T2 relaxation experiment was acquired using pulse program CPMG with 3-9-19 pulse sequence with gradients incorporated to suppress the water signal.[22] Extra water suppression was achieved by adding presaturation during D1. The spin-echo period (delay-180°-delay) was set to 1 msec (d20 is 500 μs), and the relaxation delay (d1) was set to 10 s. The pseudo-2D experiment contained nine slices with spin-echo period repeated the following times: 4, 20, 100, 200, 300, 500, 700, 1000, and 2000. The T2 relaxation experiment was processed using MestReNova 14.1, and Data Analysis Module of MestReNova was used to obtain integrals of individual ^1H-NMR signals, which were used to calculate R2 with equation I = I0exp (−tR2).\nNonlinear regression analysis was carried out using GraphPad Prism 9.2.0. Equation 12 was defined in user-defined equations as: Y = 0.5α*((X + Kd + P) −sqrt((sqr(X + Kd + P)) – 4*P*X)) where Y was calculated from eq 13 and X is the total ligand concentration. Three parameters: P, α, and Kd were in the equation with the initial value set at 1. In the default constraints setting, P was “constant equal to” the total protein concentration, Kd was “shared value for all data sets”, and α was “must be greater than […]”. CIs of parameters was calculated at 95% level using Asymmetrical (Profile-likelihood) CI."}, "BCL6 BTB [2]": {"molecular_target": "T1, BCL6 BTB", "parameters": "method as in PMID 36329085", "details": "SPR; read-out: Kd value from SPR assay (printed in the Ki column, footnote a); cited from earlier work"}}, "note": "Like-named read-outs stand apart in the source and are kept apart here."}
{"smiles": "Cc1cc(Nc2ccc(F)cc2)n2ncnc2n1", "note": "[CCT040036]", "values": [{"measurement": "Kd", "setting": "BCL6 BTB [1]; R2KD assay upper detection limit example, read-out: largest Kd determined accurately", "result": "~1000", "unit": "µM"}, {"measurement": "Kd", "setting": "BCL6 BTB [1]; R2KD assay, repeated three times (average), read-out: Kd", "result": 1050, "unit": "µM"}, {"measurement": "Kd", "setting": "BCL6 BTB [1]; single experiment, four peaks, global Kd fitting, unit inferred, read-out: Kd, global (shared) fit", "result": 905, "unit": "µM"}, {"measurement": "Kd", "setting": "BCL6 BTB [2]", "result": 1500, "unit": "µM"}]}
